# Assay results taken from US20040077031A1, “Novel methionine aminopeptidase-2 and uses thereof” (priority 2002, published 2004).
# Entries after “also recorded” stand apart in the source; their conditions may differ. Read-outs that look alike come from different tables or passages of the source.
# Tests used:
# MetAP1 [1] = target: T1, MetAP1 (Homo sapiens, UniProt P53582); experiment: Metal dependence of MetAP1 in the presence of glutathione, radioactive methionine assay; format: biochemical; conditions: 5 mM glutathione
# T1 construct: histidine tag (N); gp67 secretion signal of vector pAcGP67B (N); made in house; host or cells: baculovirus-infected Sf9 insect cells, secreted into medium
# Method: Fmoc-L-Lys(biotinyl) —OH was purchased from Bachem (King of Prussia, Pa.). Fmoc-L-[methyl-^3H]Methionine was synthesized by reacting Fmoc-Cl with L-[methyl-^3H]Methionine (Amersham, Piscataway, N.J.) in a 1:1 Dioxane/10% Na2CO3(aq) mixed solvent. The peptides were deprotected and cleaved from the resin using a trifluoroacetic acid solution containing water, thioanisole, and ethanedithiol (900 μl:25 μl:50 μl:25 μl) as scavengers. The peptides were purified by HPLC using a Waters C18 Symmetry column (7.8×300 mm, 7 μm; Milford, Mass.). […] The resulting amount of cleaved radioactive methionine is directly proportional to the catalytic activity of the MetAP. […] (See U.S. Pat. No. 6,156,495 for a discussion of labels and uses thereof). Conversely, anything impairing the catalytic activity of MetAP (e.g., inhibitory agents, wrong metal cofactor) will result in a decreased amount of free radioactive methionine.
# To study the effect of metal ions in the presence of physiologically relevant reduced glutathione (GSH) (Walker and Bradshaw, 1998), the assay measuring radioactive methionine release from a peptide described in Example 3.2 was used because GSH affected the coupled enzyme chromogenic assay.
# HMVEC = experiment: 3-day HMVEC proliferation assay; format: cell-based, human
# Method: (§1) The cellular activity of A-357300 was tested in HMVEC grown in complete EGM2 medium enriched with a combination of growth factors (vascular endothelial growth factor (VEGF), basic fibroblast growth factor (bFGF), epidermal growth factor (EGF), and insulin-like growth factor (IGF)) and fetal bovine serum. […] To determine that the cellular effect of A-357300 was through inhibition of cellular MetAp2, HMVEC were incubated with the MetAP2 inhibitors fumagillin and A-357300 for 4 hours before ^35S-methionine was added to the culture. After another 2-hour incubation, cellular proteins were collected and applied to a reactive dye-agarose column as described in Example 6. MetAP2 specific substrates (GAPDH and other cellular proteins with a N-terminal cleavable initiator methionine) were captured on the agarose column.
# cellular MetAP2 = target: T2, cellular MetAP2 (Homo sapiens, UniProt P50579); experiment: Cellular MetAP2 activity (unprocessed initiator methionine of cellular proteins) in HMVEC; format: cell-based; conditions: for inhibition of cellular MetAP2 activity / initiator methionine processing: HMVEC
# T2 construct: host or cells: HMVEC
# Method: Human microvascular endothelial cells (HMVEC) (Clonetics, San Diego, Calif.) were grown in EGM2 recommended medium (Wang et al., J. Cell. Biochem. 77: 465-473, 2000). Cells in T75 flasks at approximately 70% confluence were changed to 15 ml EGLM (labeling medium, Clonetics) without added methionine. Fumagillin (Sigma Catalog No. F-6771) or A310840 (Abbott Laboratories, Abbott Park, Ill.) was added to the culture to final concentrations of 1 nM (fumagillin) or 0.5, 2 and 5 μM (A310840). The cells and inhibitors were incubated for four hours before adding 0.5 mCi/flask of ^35S-methionine (Amersham, Piscataway, N.J.). The cells were allowed further incubation for two hours, washed and lysed in 1 ml M-per (Pierce, Rockford, Ill.) buffer. The lysate samples having the same amount of radioactivity were loaded to a 0.5 ml column of Reactive Blue 72-agarose (Sigma, St. Louis, Mo.) equilibrated with 20 mM Tris/HCl, pH 7.5, 150 mM NaCl. The columns were washed with 30 ml equilibrium buffer, and then incubated with 3 ml of 100 nM MetAP2 in equilibration/washing buffer for 20 minutes at room temperature. The MetAP2 cleaved radioactivity (unprocessed initiator methionine) was then counted.
# as §1
# HMVEC cells = experiment: Penetration and accumulation into HMVEC cells; format: in vitro ADME, human
# MetAP2 [2] = target: T3, MetAP2 (Homo sapiens, UniProt P50579); experiment: MetAP2 enzyme inhibition, coupled-enzyme chromogenic assay; format: biochemical
# T3 construct: gp67 secretion signal of vector pAcGP67B (N); made in house; host or cells: baculovirus-infected Sf9 insect cells, secreted into medium
# Text: (§2) A coupled-enzyme chromogenic assay was used to measure methionine aminopeptidase activity by monitoring the production of free methionine cleaved from specific peptide substrates containing methionine. […] Other peptides can be used including dimeric, tetrameric, pentameric, hexameric, heptameric, nonameric, decameric, and undecameric peptides. […] Free methionine was oxidized with L-amino acid oxidase (AAO, Sigma Catalog No. A-9378) and horseradish peroxidase (HRP, Sigma Catalog No. P-8451). Oxidation by AAO of free methionine generates hydrogen peroxide (H2O2) which then reacts with HRP oxidizing 0-dianisidine (Sigma Catalog No. D-1954) or 10-acetyl-3,7-dihydrophenoxazine (Amplex Red, Molecular Probes). Assays were performed in 96-well microtiter plates. Enzyme preparations were diluted in assay buffer (50 mM HEPES, pH 7.4, 100 mM NaCl), and 10 μl of the enzymes were introduced into each well. A mixture (90 μl) of 0.1 mg/ml L-amino acid oxidase, 0.1 mg/ml of horseradish peroxidase, 0.1 mg/ml ortho-dianisidine, and 0.5 mM peptide substrate was added to each cell. The reactions were carried out at room temperature, and the absorbance at 450 nanometer (A450) was measured every 20 seconds over a period of twenty minutes using an automatic plate reader (Molecular Devices, Calif., USA). The rate in mOD/min, calculated for each well, was used to represent MetAP1 or MetAP2 activity. Under this assay condition, the methionine cleaved from peptide substrate by MetAP1 or MetAP2 was instantaneously oxidized to generate a final A450 readout.
# as §1
# MetAP1 [3] = target: T1, MetAP1; experiment: Metal dependence and baseline activity of MetAP1, chromogenic assay; format: biochemical
# Text: as §2
# Both MetAP1 and MetAP2 need the presence of a metal in the active site for optimal activity, and have previously been classified as Co^2+, metalloproteases (Arfin et al, 1995; Li and Chang, 1996). […] Calcium chloride (Ca^2+), cobalt chloride (Co^2+), cupric chloride (Cu^2+), ferrous chloride (Fe^2+), magnesium chloride (Mg^2+), manganese chloride (Mn^2+), nickel chloride (Ni^2+), or zinc chloride (Zn^2+) was included in each assay at final concentrations of 0, 0.1, 1, 10, 100, 1000, and 10,000 μM in the assay buffer (50 mM HEPES, pH 7.4, 100 mM NaCl).
# MetAP2 [4] = target: T3, MetAP2; experiment: Metal dependence and baseline activity of MetAP2, chromogenic assay; format: biochemical
# Text: as §2
# Both MetAP1 and MetAP2 need the presence of a metal in the active site for optimal activity, and have previously been classified as Co^2+, metalloproteases (Arfin et al, 1995; Li and Chang, 1996). […]
# MetAP2 [5] = target: T3, MetAP2; experiment: Kinetic constants of MetAP2 with Mn2+ on peptide substrates (chromogenic assay); format: biochemical; conditions: MetAP2 with 100 μM Mn2+
# Text: as §2, with “A mixture (90 μl) of 0.1 mg/ml L-amino acid oxidase, 0.1 mg/ml of horseradish peroxidase, 0.1 mg/ml ortho-dianisidine, and 0.5 mM peptide substrate was added to each cell.” left out
# HMVEC/HUVEC = experiment: Cell proliferation inhibition; format: cell-based; conditions: Homo sapiens, read-out: IC50s of proliferation inhibition
# Method: as §1
# BEND3 (mouse) = experiment: Cell proliferation inhibition; format: cell-based; conditions: EC, read-out: IC50s of proliferation inhibition
# Text: (§3) Table 2 summarizes the selectivity of MetAP2 inhibitors in inhibiting the proliferation of endothelial cells and certain tumor cells. Proliferation of endothelial cells of various origins, normal human primary cells pf non-EC type, and tumor cell lines were studied with MetAP2 inhibitors A-357300 and fumagillin. […] Most tumor cells were […] while some were resistant.
# Human CEC = experiment: Cell proliferation inhibition; format: cell-based; conditions: EC, read-out: IC50s of proliferation inhibition
# Text: as §3
# MDA-MB = experiment: Cell proliferation inhibition; format: cell-based; conditions: Tumor cells, read-out: IC50s of proliferation inhibition
# Text: as §3
# DLD-1 = experiment: Cell proliferation inhibition; format: cell-based; conditions: Homo sapiens, Tumor cells, read-out: IC50s of proliferation inhibition
# Text: as §3
# [6] = tested on: Prostate Epithelial cells; experiment: Cell proliferation inhibition; format: cell-based; conditions: Normal human primary cells, read-out: IC50s of proliferation inhibition
# Text: as §3
# HCT-15 = experiment: Cell proliferation inhibition; format: cell-based; conditions: Homo sapiens, Tumor cells, read-out: IC50s of proliferation inhibition
# Text: as §3
# Fibroblasts = experiment: Cell proliferation inhibition; format: cell-based; conditions: Fibroblast, Normal human primary cells, read-out: IC50s of proliferation inhibition
# Text: as §3
# NCI-H460 = experiment: Cell proliferation inhibition; format: cell-based; conditions: Homo sapiens, Tumor cells, read-out: IC50s of proliferation inhibition
# Text: as §3
# CHP-134 = experiment: Cell proliferation inhibition; format: cell-based; conditions: Homo sapiens, Tumor cells, read-out: IC50s of proliferation inhibition
# Text: as §3
# Mammary Epithelial cells = experiment: Cell proliferation inhibition; format: cell-based; conditions: Normal human primary cells, read-out: IC50s of proliferation inhibition
# Text: as §3
# MiaPaCa2 = experiment: Cell proliferation inhibition; format: cell-based; conditions: Homo sapiens, MIA PaCa-2, Tumor cells, read-out: IC50s of proliferation inhibition
# Text: as §3
# A549 = experiment: Cell proliferation inhibition; format: cell-based; conditions: Homo sapiens, Tumor cells, read-out: IC50s of proliferation inhibition
# Text: as §3
# BAEC (bovine) = experiment: Cell proliferation inhibition; format: cell-based; conditions: Bos taurus, EC, read-out: IC50s of proliferation inhibition
# Text: as §3
# HT-1080 = experiment: Cell proliferation inhibition; format: cell-based; conditions: Homo sapiens, Tumor cells, read-out: IC50s of proliferation inhibition
# Text: as §3
# MDA-435-LM = experiment: Cell proliferation inhibition; format: cell-based; conditions: Homo sapiens, Tumor cells, read-out: IC50s of proliferation inhibition
# Text: as §3
# PC3 = experiment: Cell proliferation inhibition; format: cell-based; conditions: Homo sapiens, PC-3, Tumor cells, read-out: IC50s of proliferation inhibition
# Text: as §3
# MCF7 = experiment: Cell proliferation inhibition; format: cell-based; conditions: Homo sapiens, Tumor cells, read-out: IC50s of proliferation inhibition
# Text: as §3
# T-lymphocytes = experiment: Cell proliferation inhibition; format: cell-based; conditions: T-lymphocyte, Normal human primary cells, read-out: IC50s of proliferation inhibition
# Text: as §3
# Astrocytes = experiment: Cell proliferation inhibition; format: cell-based; conditions: Astrocyte, Normal human primary cells, read-out: IC50s of proliferation inhibition
# Text: as §3
# T3 sequence (P50579 whole entry): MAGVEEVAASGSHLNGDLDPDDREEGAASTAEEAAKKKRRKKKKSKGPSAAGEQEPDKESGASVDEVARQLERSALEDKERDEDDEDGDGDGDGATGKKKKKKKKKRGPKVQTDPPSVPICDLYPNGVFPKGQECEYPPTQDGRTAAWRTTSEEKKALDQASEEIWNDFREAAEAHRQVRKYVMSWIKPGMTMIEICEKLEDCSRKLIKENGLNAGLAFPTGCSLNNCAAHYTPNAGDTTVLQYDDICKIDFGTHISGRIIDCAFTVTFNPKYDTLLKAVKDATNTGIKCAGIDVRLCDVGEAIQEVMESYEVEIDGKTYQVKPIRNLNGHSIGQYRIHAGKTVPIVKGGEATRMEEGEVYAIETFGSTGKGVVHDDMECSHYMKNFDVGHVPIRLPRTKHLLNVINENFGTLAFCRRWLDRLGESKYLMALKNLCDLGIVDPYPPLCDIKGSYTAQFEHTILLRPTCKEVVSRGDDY
# T2 sequence (P50579 whole entry): as above
compound,measurement,setting,value
"[Cl][Fe][Cl] [Fe^2+, ferrous chloride]",effect on MetAP1 activity,MetAP1 [1],stimulatory
"c1ccc2cc(CSc3nnc[nH]3)ccc2c1 [A310840, 3-((2-naphthylmethyl)sulfanyl)-4H-1,2,4-triazole]",inhibition of HMVEC cell proliferation,HMVEC,did not inhibit
same,inhibition of cellular MetAP2 activity / initiator methionine processing,cellular MetAP2,did not inhibit
same,processing of protein initiator methionine in HMVEC,cellular MetAP2; treatment up to 10 μM,not blocked
same,penetration and accumulation into HMVEC cells,HMVEC cells,able to penetrate and accumulate
same,inhibition of MetAP2-Mn2+,MetAP2 [2]; Mn2+ as metal cofactor,did not inhibit
same,fold less active as inhibitor of MetAP2 with Mn2+,"MetAP2 [2]; Mn2+ form versus baseline, Co2+ and other metal forms",1000 fold
same,IC50,"MetAP2 [2]; other metal ions including Zn2+, Fe2+, and Ni2+, read-out: IC50 on MetAP2 with many other metal ions",10 to 117 nM
same,IC50,"MetAP2 [2]; without added metals, read-out: IC50 on the baseline activity of MetAP2",60 nM
"[Cl][Co][Cl] [Co^2+, cobalt chloride]",stimulation of MetAP1 activity,MetAP1 [3]; MAS substrate,about 2 fold
same,stimulation of MetAP1 activity,MetAP1 [3]; MGAQFSKT substrate,5 fold
same,metal concentration of maximum effect on MetAP2,MetAP2 [4],10 µM
same,effect on MetAP1 activity,MetAP1 [1],stimulatory
"[Cl-].[Cl-].[Zn+2] [Zn^2+, zinc chloride]",effect on MetAP1 activity,MetAP1 [1],showed the best activity
manganese chloride [Mn^2+],stimulation of MetAP1 activity,MetAP1 [3]; MAS substrate,about 2 fold
same,stimulation of MetAP1 activity,MetAP1 [3]; MGAQFSKT substrate,3 fold
same,metal concentration of maximum effect on MetAP2,MetAP2 [4],1 µM
same,concentration that fully stimulated human MetAP2 activity,MetAP2 [4]; in the presence and absence of physiological concentrations of GSH,1 µM
MGKVKVG,Km,MetAP2 [5],215 µM
same,kcat,MetAP2 [5],9.563 s⁻¹
"CO[C@@H]1[C@H](OC(=O)/C=C/C=C/C=C/C=C/C(=O)O)CC[C@]2(CO2)[C@H]1[C@@]1(C)O[C@@H]1CC=C(C)C [Fumagillin, fumagillin]",inhibition of HMVEC cell proliferation,HMVEC; 1 nM,inhibition of cell proliferation
same,unprocessed N-terminal initiator methionine of cellular proteins in HMVEC,cellular MetAP2; 1 nM,increased; also recorded: accumulation of unprocessed N-terminal methionine
same,inhibition of cellular MetAP2 activity / initiator methionine processing,cellular MetAP2,inhibition; also recorded: able to block
same,IC50,HMVEC/HUVEC,1 nM
same,inhibition of MetAP2 with all metal ions,MetAP2 [2]; all metal ions,inhibited MetAP2 with all metal ions
same,IC50,BEND3 (mouse),2 nM
same,IC50,Human CEC,1 nM
same,IC50,MDA-MB,> 1000 nM
same,IC50,DLD-1,2 nM
same,IC50,[6],> 1000 nM
same,IC50,HCT-15,3 nM
same,IC50,Fibroblasts,> 1000 nM
same,IC50,NCI-H460,3 nM
same,IC50,CHP-134,1 nM
same,IC50,Mammary Epithelial cells,> 1000 nM
same,IC50,MiaPaCa2,> 1000 nM
same,IC50,A549,2 nM
same,IC50,BAEC (bovine),1 nM
same,IC50,HT-1080,1 nM
same,IC50,MDA-435-LM,> 1000 nM
same,IC50,PC3,> 1000 nM
same,IC50,MCF7,> 1000 nM
same,IC50,T-lymphocytes,8300 nM
same,IC50,Astrocytes,> 1000 nM
